# Laboratory results: patent US20110165603A1, “SMALL MOLECULE FLUORESCENT SENSORS FOR DETECTION OF POST-TRANSLATIONALMODIFICATIONS AND PROTEIN INTERACTIONS IN BIOASSAYS” (Gyrasol Technologies Inc., priority 2008, published 2011)
# Entries after “also recorded” stand apart in the source; their conditions may differ.
# Key:
# [1] = tested on: PKA present in 2 μg lysate; assay: Multiplexed lysate assay: PKA phosphorylation of Chromeo642-labeled LRRASLG; format: biochemical, mouse; conditions: 3 μM substrate, FIG. 24B
# Description: (§1) In the presence of cAMP, PKA activity is stimulated resulting in phosphorylation of labeled kemptide substrate and an increase in the delta RFU of the kemptide (right axis). PDE4A 1A hydrolyzes c-AMP to AMP resulting in an increase in the delta RFU (left axis). In the presence of the PDE inhibitor IBMX, hydrolysis of cAMP is inhibited resulting in hight concentrations of cAMP and higher PKA activities. FIG. 24B is a line graph of the change in relative fluorescence units (delta RFU) in fluorescien-labelled cAMP (1.5 μM, left axis) and Chromeo642-labeled LRRASLG (3 μM, right axis) caused by PKA present in 2 μg lysate in the presence of varying amounts of the non-selective PDE inhibitor IBMX.
# (§2) Multiplexing can be accomplished using electron transfer quenching with zirconyl chloride sensor and 2 μM fluorescein labeled cAMP simultaneously with 2 μM TAMRA labeled cGMP in various concentration of mouse brain lysate.
# (§3) The assay platform can be used to monitor activities of enzymes of various classes, and thus is a novel tool to connect different braches of signaling. As outlined in the schematic FIG. 24A, a phsphodiesterase-mediated cleavage of cAMP is inhibited by IBMX. As a result, increasing amounts of cAMP can bind to the regulatory domain of its downstream target, PKA. Upon binding, the regulatory subunits disassociate from the catalytic subunit and PKA becomes catalytically active.
# recombinant PDE41A1A = recombinant PDE41A1A (Homo sapiens, UniProt P27815); assay: PDE biochemical inhibition assay with fluorescein-labeled cAMP and zirconyl chloride sensor; conditions: endpoint mode, PDE4A1A 3 nM, 2 μM fluorescein-labeled cAMP, 100 μM sensor, FIG. 21A
# Sequence of recombinant PDE41A1A (P27815 1-647 isoform P27815-4): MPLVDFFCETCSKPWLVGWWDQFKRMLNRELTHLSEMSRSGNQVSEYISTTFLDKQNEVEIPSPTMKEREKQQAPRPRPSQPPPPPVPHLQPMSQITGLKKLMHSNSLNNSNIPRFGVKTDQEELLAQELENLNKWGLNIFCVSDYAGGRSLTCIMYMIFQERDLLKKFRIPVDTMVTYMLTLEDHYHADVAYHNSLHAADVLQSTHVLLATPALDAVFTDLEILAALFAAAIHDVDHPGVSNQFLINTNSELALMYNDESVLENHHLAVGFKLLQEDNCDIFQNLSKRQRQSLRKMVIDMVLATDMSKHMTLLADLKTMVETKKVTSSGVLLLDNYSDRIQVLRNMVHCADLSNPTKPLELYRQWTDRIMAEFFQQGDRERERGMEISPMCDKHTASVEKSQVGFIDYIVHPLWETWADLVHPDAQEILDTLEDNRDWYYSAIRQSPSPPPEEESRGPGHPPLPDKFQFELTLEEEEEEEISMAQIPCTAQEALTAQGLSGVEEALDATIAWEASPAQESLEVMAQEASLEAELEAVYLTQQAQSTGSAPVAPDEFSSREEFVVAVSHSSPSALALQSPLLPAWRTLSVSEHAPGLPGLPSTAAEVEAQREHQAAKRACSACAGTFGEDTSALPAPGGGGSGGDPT
# Description: Assays were conducted with fluorescein-labeled cAMP at 2 μM and sensor (zirconyl chloride) at 100 μM.
# For biochemical assays, 2 μM fluorescein labeled cAMP was added to various concentrations of recombinant PDE4AIA and zirconyl chloride sensor was added (100 μM) following 1 hour of incubation at room temperature (FIG. 19A). […] Reactions were terminated by addition of 100 μM Zirconyl sensor. […] Reactions were terminated by addition of 100 μM Zirconyl sensor.
# phosphodiesterase = assay: Multiplexed lysate assay: phosphodiesterase mediated cleavage of fluorescein-labeled cAMP; format: biochemical, mouse; conditions: 2 μg lysate, 1.5 μM cAMP substrate, FIG. 24B
# Description: as §1, §2, §3
compound,measurement,setting,value
CC(C)Cn1c(=O)n(C)c(=O)c2[nH]cnc21 [IBMX],PKA activity (delta RFU of Chromeo642-labeled LRRASLG) as a function of inhibitor concentration,[1],increasing phosphorylation of the PKA substrate Chromeo-GLRRASLG; also recorded: PKA activity increases with increasing amount of IBMX
same,Inhibition values,recombinant PDE41A1A,closely matched literature values
same,PDE activity (delta RFU of fluorescein-labeled cAMP) as a function of inhibitor concentration,phosphodiesterase,decreasing activity of phosphodiesterase mediated cleavage of cAMP; also recorded: PDE activity decreased with increasing amounts of IBMX
